target: T1, full-length human PKCι (Homo sapiens, UniProt P41743); experiment: PKCι IC50 IMAP fluorescence polarisation assay, full-length enzyme; assay type: biochemical; settings: enzyme form not given; no asterisk; read-out: Activity (IC50 printed as a bound, no asterisk)
T1 construct: Recombinant, full-length human PKCι expressed in Sf21 insect cells is also commercially available; purchased; host or cells: Sf21 insect cells
T1 sequence (P41743 1-596): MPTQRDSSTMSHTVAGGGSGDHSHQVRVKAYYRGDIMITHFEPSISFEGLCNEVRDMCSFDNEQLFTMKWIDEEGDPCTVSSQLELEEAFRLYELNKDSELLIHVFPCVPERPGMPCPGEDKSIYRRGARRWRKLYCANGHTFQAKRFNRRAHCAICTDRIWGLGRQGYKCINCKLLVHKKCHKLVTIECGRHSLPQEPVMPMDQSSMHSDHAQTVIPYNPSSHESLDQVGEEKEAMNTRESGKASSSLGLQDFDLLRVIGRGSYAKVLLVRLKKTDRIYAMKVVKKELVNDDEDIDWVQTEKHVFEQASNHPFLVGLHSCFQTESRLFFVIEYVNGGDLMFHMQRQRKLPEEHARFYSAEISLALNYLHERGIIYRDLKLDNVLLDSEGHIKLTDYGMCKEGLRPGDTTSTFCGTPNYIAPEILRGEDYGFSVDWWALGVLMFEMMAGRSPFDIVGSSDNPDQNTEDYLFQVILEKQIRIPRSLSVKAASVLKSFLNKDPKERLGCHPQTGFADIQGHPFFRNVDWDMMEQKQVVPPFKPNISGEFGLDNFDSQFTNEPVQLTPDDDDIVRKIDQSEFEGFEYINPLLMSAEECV

IC50 | SMILES
> 60000 nM | Cn1cc(-c2nc(NCCN)c3c4c(sc3n2)CCCC4)cn1 [compound 195, N*1*-[2-(1-Methyl-1H-pyrazol-4-yl)-5,6,7,8-tetrahydro-benzo[4,5]thieno[2,3-d]pyrimidin-4-yl]-ethane-1,2-diamine]

same assay, conditions: full length PKCi at 15 μM ATP; read-out: IC50 in IMAP assay against full length PKCi

SMILES | IC50
Nc1csc2c(N[C@@H]3CCNC3)nc(-c3ccncc3)nc12 [compound 567, 2-Pyridin-4-yl-N*4*-(R)-pyrrolidin-3-yl-thieno[3,2-d]pyrimidine-4,7-diamine] | 1000 to 10000 nM
C[C@@H](F)C#Cc1csc2c(NC[C@@H](N)Cc3ccccc3)nc(-c3ccncc3)nc12 [compound 544, (S)—N*1*-[7-(3-Fluoro-but-1-ynyl)-2-pyridin-4-yl-thieno[3,2-d]pyrimidin-4-yl]-3-phenyl-propane-1,2-diamine] | < 100 nM
Cc1[nH]ncc1-c1nc(N[C@@H]2CCNC2)c2sccc2n1 [compound 633, [2-(5-Methyl-1H-pyrazol-4-yl)-thieno[3,2-d]pyrimidin-4-yl]-(R)-pyrrolidin-3-yl-amine] | 10000 to 40000 nM
c1ccc(Nc2csc3c(N[C@@H]4CCNC4)nc(-c4ccncc4)nc23)nc1 [compound 487, 2-Pyridin-4-yl-N*7*- pyridin-2-yl-N*4*-(R)-pyrrolidin-3-yl-thieno[3,2-d]pyrimidine-4,7-diamine] | 1000 to 10000 nM
Fc1cnccc1-c1nc(N[C@@H]2CCNC2)c2scc(Br)c2n1 [compound 352, [7-Bromo-2-(3-fluoro-pyridin-4-yl)-thieno[3,2-d]pyrimidin-4-yl]-(R)-pyrrolidin-3-yl-amine] | 1000 to 10000 nM
N#Cc1ccc(Nc2cc(-c3nc(N[C@@H]4CCNC4)c4sccc4n3)ccn2)cc1 [compound 607, 4-{4-[4-((R)-Pyrrolidin-3-ylamino)-thieno[3,2-d]pyrimidin-2-yl]-pyridin-2-ylamino}-benzonitrile] | 1000 to 10000 nM
c1cc(-c2nc(N[C@@H]3CCNC3)c3scc(-c4ccn[nH]4)c3n2)ccn1 [compound 403, [7-(2H-Pyrazol-3-yl)-2-pyridin-4-yl-thieno[3,2-d]pyrimidin-4-yl]-(R)-pyrrolidin-3-yl-amine] | < 100 nM
c1cc(-c2nc(N[C@@H]3CCCNC3)c3sccc3n2)ccn1 [compound 316, (R)-Piperidin-3-yl-(2-pyridin-4-yl-thieno[3,2-d]pyrimidin-4-yl)-amine] | 1000 to 10000 nM
Cc1c(C#CC(C)(C)O)sc2c(N[C@@H]3CCNC3)nc(-c3ccncc3)nc12 [compound 502, 2-Methyl-4-[7-methyl-2-pyridin-4-yl-4-((R)-pyrrolidin-3-ylamino)-thieno[3,2-d]pyrimidin-6-yl]-but-3-yn-2-ol] | 1000 to 10000 nM
N[C@H](CNc1nc(-c2ccncc2)nc2c(C#Cc3cscn3)csc12)Cc1ccccc1 [compound 548, (S)-3-Phenyl-N*1*-(2-pyridin-4-yl-7-thiazol-4-ylethynyl-thieno[3,2-d]pyrimidin-4-yl)-propane-1,2-diamine] | 100 to 1000 nM
N[C@H](CNc1nc(-c2ccncc2F)nc2c(-c3cc(C(F)(F)F)[nH]n3)csc12)Cc1ccccc1 [compound 421, (S)-N*1*-[2-(3-Fluoro-pyridin-4-yl)-7-(5-trifluoromethyl-2H-pyrazol-3-yl)-thieno[3,2-d]pyrimidin-4-yl]-3-phenyl-propane-1,2-diamine] | 1000 to 10000 nM
C#Cc1csc2c(N[C@@H]3CCNC3)nc(-c3ccncc3)nc12 [compound 559, (7-Ethynyl-2-pyridin-4-yl-thieno[3,2-d]pyrimidin-4-yl)-(R)-pyrrolidin-3-yl-amine] | 100 to 1000 nM
c1ccc(Nc2cc(-c3nc(N[C@@H]4CCNC4)c4sccc4n3)ccn2)cc1 [compound 573, [2-(2-Phenylamino-pyridin-4-yl)-thieno[3,2-d]pyrimidin-4-yl]-(R)-pyrrolidin-3-yl-amine] | 1000 to 10000 nM
N[C@H](CNc1nc(-c2ccncc2F)nc2c(-c3cc[nH]n3)csc12)Cc1ccccc1 [compound 416, (S)-N*1*-[2-(3-Fluoro-pyridin-4-yl)-7-(1H-pyrazol-3-yl)-thieno[3,2-d]pyrimidin-4-yl]-3-phenyl-propane-1,2-diamine] | < 100 nM

The remaining lines, values ahead:

IC50 | SMILES
100 to 1000 nM | COC(C)(C)C#Cc1csc2c(NC[C@@H](N)Cc3ccccc3)nc(-c3ccncc3)nc12 [compound 520, (S)-N*1*-[7-(3-Methoxy-3-methyl-but-1-ynyl)-2-pyridin-4-yl-thieno[3,2-d]pyrimidin-4-yl]-3-phenyl-propane-1,2-diamine]
< 100 nM | CC#Cc1csc2c(NC[C@@H](N)Cc3ccccc3)nc(-c3ccncc3)nc12 [compound 542, (S)-3-Phenyl-N*1*-(7-prop-1-ynyl-2-pyridin-4-yl-thieno[3,2-d]pyrimidin-4-yl)-propane-1,2-diamine]
1000 to 10000 nM | CNc1ccc(-c2c(C(C)(C)C)sc3c(NC[C@@H](N)Cc4ccccc4)nc(-c4ccncc4)nc23)cc1 [compound 448, (S)-N*1*-[6-tert-Butyl-7-(4-methylamino-phenyl)-2-pyridin-4-yl-thieno[3,2-d]pyrimidin-4-yl]-3-phenyl-propane-1,2-diamine]
10000 to 40000 nM | CC(C)(C)c1sc2c(NC[C@@H](N)Cc3ccccc3)nc(-c3ccncc3)nc2c1-c1cccc(N)c1 [compound 444, (S)-N*1*-[7-(3-Amino-phenyl)-6-tert-butyl-2-pyridin-4-yl-thieno[3,2-d]pyrimidin-4-yl]-3-phenyl-propane-1,2-diamine]
1000 to 10000 nM | Cc1noc(C)c1-c1csc2c(NC[C@@H](N)Cc3ccccc3)nc(-c3ccncc3)nc12 [compound 392, N*1*-[7-(3,5-Dimethyl-isoxazol-4-yl)-2-pyridin-4-yl-thieno[3,2-d]pyrimidin-4-yl]-3-phenyl-propane-1,2-diamine]
10000 to 40000 nM | Cc1sc2c(NC[C@@H](N)Cc3ccccc3)nc(-c3ccncc3)nc2c1-c1cc(F)ccc1OC(C)C [compound 446, (S)-N*1*-[7-(5-Fluoro-2-isopropoxy-phenyl)-6-methyl-2-pyridin-4-yl-thieno[3,2-d]pyrimidin-4-yl]-3-phenyl-propane-1,2-diamine]
100 to 1000 nM | N[C@H](CNc1nc(-c2ccncc2)nc2c(-c3cc(C4CC4)[nH]n3)csc12)Cc1ccccc1 [compound 418, (S)-N*1*-[7-(5-Cyclopropyl-1H-pyrazol-3-yl)-2-pyridin-4-yl-thieno[3,2-d]pyrimidin-4-yl]-3-phenyl-propane-1,2-diamine]
100 to 1000 nM | CC(C)C#Cc1csc2c(NC[C@@H](N)Cc3ccccc3)nc(-c3ccncc3)nc12 [compound 518, (S)-N*1*-[7-(3-Methyl-but-1-ynyl)-2-pyridin-4-yl-thieno[3,2-d]pyrimidin-4-yl]-3-phenyl-propane-1,2-diamine]

same assay, conditions: full length PKCi at 15 μM ATP; read-out: IC50 in IMAP assay against full length PKCi (Activity)

IC50 | SMILES
1000 to 10000 nM | c1cc(-c2nc(O[C@@H]3CCNC3)c3c4c(sc3n2)CCCC4)ccn1 [compound 139, 2-Pyridin-4-yl-4-((R)-pyrrolidin-3-yloxy)-5,6,7,8-tetrahydro-benzo[4,5]thieno[2,3-d]pyrimidine]
10000 to 40000 nM | NCCNc1nc(-c2ccncc2)nc2sc3c(c12)CCOC3 [compound 45, N*1*-(2-Pyridin-4-yl-5,8-dihydro-6H-pyrano[4′3′:4,5]thieno[2,3-d]pyrimidin-4-yl)-ethane-1,2-diamine]
10000 to 40000 nM | CN1CCc2c(sc3nc(-c4ccncc4)nc(NCCN)c23)C1 [compound 113, N*1*-(7-Methyl-2-pyridin-4-yl-5,6,7,8-tetrahydro-pyrido[4′,3′:4,5]thieno[2,3-d]pyrimidin-4-yl)-ethane-1,2-diamine]

— patent US10183950B2, “Thienopyrimidine inhibitors of atypical protein kinase C” (Cancer Research Technology Limited, priority 2011, dated 2019)
